These results are taken from patent publication US20260138961A1, “MODULATORS OF MITOCHONDRIAL DNA REPLICATION” (Pretzel Therapeutics, Inc., priority 2022, published 2026).

Bounds are passed on as bounds.

For the test, the target named is T1, POLγA:Y955C (Homo sapiens, UniProt P54098, Y955C).
T1 sequence (P54098 1-1239 Y955C): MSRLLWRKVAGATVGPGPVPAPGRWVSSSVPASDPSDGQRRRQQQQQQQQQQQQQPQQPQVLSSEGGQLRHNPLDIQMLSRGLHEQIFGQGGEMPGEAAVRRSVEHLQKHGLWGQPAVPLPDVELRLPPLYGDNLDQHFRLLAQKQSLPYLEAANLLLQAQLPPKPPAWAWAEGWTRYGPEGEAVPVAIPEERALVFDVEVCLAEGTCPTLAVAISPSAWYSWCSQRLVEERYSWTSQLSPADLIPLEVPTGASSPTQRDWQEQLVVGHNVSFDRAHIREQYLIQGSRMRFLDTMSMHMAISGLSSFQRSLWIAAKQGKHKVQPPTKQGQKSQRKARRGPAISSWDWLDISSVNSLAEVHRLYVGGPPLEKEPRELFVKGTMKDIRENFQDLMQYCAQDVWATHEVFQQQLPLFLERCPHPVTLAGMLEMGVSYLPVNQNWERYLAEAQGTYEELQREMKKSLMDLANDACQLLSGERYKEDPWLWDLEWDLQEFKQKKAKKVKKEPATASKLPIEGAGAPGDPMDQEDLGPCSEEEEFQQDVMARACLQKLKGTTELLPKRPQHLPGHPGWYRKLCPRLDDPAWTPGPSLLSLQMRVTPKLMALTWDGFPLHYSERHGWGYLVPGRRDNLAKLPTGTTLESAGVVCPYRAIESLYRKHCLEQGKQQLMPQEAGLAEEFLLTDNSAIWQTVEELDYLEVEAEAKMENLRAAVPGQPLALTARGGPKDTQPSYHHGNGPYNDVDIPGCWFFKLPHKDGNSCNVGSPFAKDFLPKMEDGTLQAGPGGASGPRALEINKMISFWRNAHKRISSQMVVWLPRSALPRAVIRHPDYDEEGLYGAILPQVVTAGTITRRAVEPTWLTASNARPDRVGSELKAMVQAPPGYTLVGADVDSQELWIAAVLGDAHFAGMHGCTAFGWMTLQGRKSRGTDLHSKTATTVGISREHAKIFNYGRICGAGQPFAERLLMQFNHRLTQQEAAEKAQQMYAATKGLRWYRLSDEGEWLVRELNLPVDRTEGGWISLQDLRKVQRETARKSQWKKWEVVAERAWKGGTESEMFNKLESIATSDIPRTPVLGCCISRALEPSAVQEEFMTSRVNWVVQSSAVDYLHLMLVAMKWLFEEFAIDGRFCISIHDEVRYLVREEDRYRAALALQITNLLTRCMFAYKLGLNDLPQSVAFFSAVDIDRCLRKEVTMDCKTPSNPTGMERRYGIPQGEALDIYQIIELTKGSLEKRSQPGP
T1 sequence (Q9UHN1 1-485 partner): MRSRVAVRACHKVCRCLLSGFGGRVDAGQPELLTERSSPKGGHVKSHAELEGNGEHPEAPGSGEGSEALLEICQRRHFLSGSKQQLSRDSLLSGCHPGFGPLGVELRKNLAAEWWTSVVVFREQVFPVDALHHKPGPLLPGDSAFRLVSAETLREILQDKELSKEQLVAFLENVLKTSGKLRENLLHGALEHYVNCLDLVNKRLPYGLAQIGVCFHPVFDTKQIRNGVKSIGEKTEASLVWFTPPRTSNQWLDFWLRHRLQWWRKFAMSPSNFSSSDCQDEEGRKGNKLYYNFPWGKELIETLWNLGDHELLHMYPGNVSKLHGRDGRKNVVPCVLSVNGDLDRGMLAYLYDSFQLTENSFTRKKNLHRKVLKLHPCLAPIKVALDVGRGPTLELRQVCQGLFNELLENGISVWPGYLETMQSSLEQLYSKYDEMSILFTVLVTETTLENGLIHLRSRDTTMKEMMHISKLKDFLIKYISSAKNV
The test is described as follows: DNA polymerization assay, POLγA:Y955C mutant. Type of test: biochemical. As to conditions: stimulation of polymerase activity, primed M13mp18 ssDNA, 37° C. 2 hours. On the procedure: DNA Polymerization Assay to Monitor Effects on Human Wildtype POLγ and Four Disease-Causing Mutant Variants of Human POLγ.
The ability of small molecules to stimulate the polymerase activity of POLγ was analyzed in a quantitative fluorescence SYBR Green I assay with fluorescence intensity (FI) readout.
In the presence of dNTPs, wild type human POLγ and mutant derivatives thereof were incubated with single-stranded, circular M13mp18 ssDNA hybridized to a short DNA oligonucleotide that functions as a primer for initiation of DNA synthesis. POLγ and mutant derivatives thereof will extend the primer and use the M13mp18 molecule as a template to synthesize long stretches of double-stranded DNA. SYBR Green I, which is a double-stranded DNA-binding dye, was used to quantify formation of double-stranded DNA in the reaction. When bound to double-stranded DNA, SYBR Green I fluorescence increases by up to 100-fold.
The assay was performed in the 384-well plate format. Upon addition of compounds, changes in double-stranded DNA synthesis activity can be monitored by following effects on fluorescent intensity.
The reactions also contained the accessory POLγB subunit, and the human mitochondrial single-stranded DNA binding protein (mtSSB).
The DNA template mixture used in the assay contained 0.5 nM primed M13 mp18 ssDNA, 400 nM mtSSB, 0.1 mM Tris-HCl (pH 8.0), 0.1 mM dNTP, 10 mM MgCl2, 0.1 mg/mL BSA, 1 mM TCEP solution, and 0.02% Triton X-100. The DNA template mixture for the wild type protein contained either 100 μM dNTP, 1 μM dNTP, or 0.1 μM dNTP, designated in Table 2 as 100 μM, 1 μM, and 0.1 μM, respectfully.
Microplates with compounds (0.1 μL in each well) to be tested in the assay were prepared from 10 mM compound stocks in 100% DMSO, and equal amounts of DMSO without any compound were added to positive and negative control wells.
The protein mixture was dispensed (5 μL into each well) into compound plates and incubated at 37° C. for 15 minutes. After incubation, 5 μL of the DNA template mixture was dispensed into each well. The plates were then incubated at 37° C. for 2 hours.
During incubation, a combined stop buffer and detection reagent solution was prepared. The buffer contained 25 mM EDTA (pH 8.0), 0.02% Triton X-100, and SYBR Green I [Invitrogen] diluted 10,000× (for fluorescent readout). EDTA will stop the enzymatic reaction by chelating magnesium ions.
As usually defined, the AC50 is the midpoint of the concentration-response curve, whichever way the signal moves. In turn, `Cc1ccc(C)c(S(=O)(=O)Nc2cccc(C(=O)N3CCCCC3C#N)c2)c1` (centres unmarked) [Example 2, N-(3-(2-cyanopiperidine-1-carbonyl)phenyl)-2,5-dimethylbenzenesulfonamide] showed an AC50 of 1 µM.

As for `Cc1cc(S(=O)(=O)Nc2cccc(C(=O)N3CCCC[C@H]3C)c2)c(C)cc1Cl` [Example 9, (R)-4-chloro-2,5-dimethyl-N-(3-(2-methylpiperidine-1-carbonyl)phenyl)benzenesulfonamide], the AC50 was 2 µM.

In turn, `Cc1cc(S(=O)(=O)Nc2ccc3c(c2)CC(=O)N3)c(C)cc1Cl` [Example 185, 4-chloro-2,5-dimethyl-N-(2-oxoindolin-5-yl)benzenesulfonamide] gave a concentration at half-maximal activity (AC50) of 2 µM.

`Cc1ccc(C)c(S(=O)(=O)Nc2cccc(C(=O)N3CCOCC3C#N)c2)c1` (centres unmarked) [Example 7, N-(3-(3-cyanomorpholine-4-carbonyl)phenyl)-2,5-dimethylbenzenesulfonamide]: the half-maximal activity concentration (AC50) stood at 1 µM.

Regarding `Cc1ccc(C)c(S(=O)(=O)Nc2cccc(C(=O)N3CCCC[C@H]3C)c2)c1` [Example 5, (R)-2,5-dimethyl-N-(3-(2-methylpiperidine-1-carbonyl)phenyl)benzenesulfonamide], the AC50 worked out at 3 µM.

Take `Cc1cc(S(=O)(=O)Nc2cc(F)cc(C(=O)N3CCC[C@H]3C)c2)c(C)cc1Cl` [Example 13, (R)-4-chloro-N-(3-fluoro-5-(2-methylpyrrolidine-1-carbonyl)phenyl)-2,5-dimethylbenzenesulfonamide]: the activity was half-maximal at 2 µM (AC50).

`Cc1cc(S(=O)(=O)Nc2cccc(-c3nccs3)c2)c(C)cc1Cl` [Example 16, 4-chloro-2,5-dimethyl-N-(3-(thiazol-2-yl)phenyl)benzenesulfonamide] returned an AC50 of 0.8 µM.

Turning to `Cc1cc(S(=O)(=O)Nc2cccc(-c3ncco3)c2)c(C)cc1Cl` [Example 17, 4-chloro-2,5-dimethyl-N-(3-(oxazol-2-yl)phenyl)benzenesulfonamide], the AC50 was determined as 0.8 µM.

In the case of `Cc1cnc(-c2ccc(C)c(NS(=O)(=O)c3cc(C)c(Cl)cc3C)c2)s1` [Example 98, 4-chloro-2,5-dimethyl-N-(2-methyl-5-(5-methylthiazol-2-yl)phenyl)benzenesulfonamide], the AC50 was greater than 10 µM.

The molecule `Cc1cc(S(=O)(=O)Nc2cccc(-c3ccn(C)n3)c2)c(C)cc1Cl` [Example 18, 4-chloro-2,5-dimethyl-N-(3-(1-methyl-1H-pyrazol-3-yl)phenyl)benzenesulfonamide] registered an AC50 of 3 µM.

For `Cc1cc(S(=O)(=O)Nc2cccc(C(=O)N(C)C(C)CO)c2)c(C)cc1Cl` (single isomer, unassigned) [Example 14, 3-((4-chloro-2,5-dimethylphenyl)sulfonamido)-N-(1-hydroxypropan-2-yl)-N-methylbenzamide], the AC50 came out at 2 µM.

As for `Cc1cc(S(=O)(=O)Nc2cccc(-c3nccn3C)c2)c(C)cc1Cl` [Example 19, 4-chloro-2,5-dimethyl-N-(3-(1-methyl-1H-imidazol-2-yl)phenyl)benzenesulfonamide], half-maximal activity (AC50) was put at 0.5 µM.

`Cc1cc(S(=O)(=O)Nc2cccc(C(=O)N(C)C)c2)c(C)cc1Cl` [Example 12, 3-((4-chloro-2,5-dimethylphenyl)sulfonamido)-N,N-dimethylbenzamide] had an AC50 of 2 µM.

`Cc1ccc(C)c(S(=O)(=O)Nc2cccc(C(=O)N3CCCCC3)c2)c1` [Example 3, 2,5-dimethyl-N-(3-(piperidine-1-carbonyl)phenyl)benzene sulfonamide] came in with an AC50 of 5 µM.

`Cc1cnc(-c2ccc(Cl)c(NS(=O)(=O)c3cc(C)c(Cl)cc3C)c2)s1` [Example 102, 4-chloro-N-(2-chloro-5-(5-methylthiazol-2-yl)phenyl)-2,5-dimethylbenzenesulfonamide]: the AC50 is greater than 100 µM.

The molecule `Cc1cc(S(=O)(=O)Nc2cccc(-c3ncc(C#N)s3)c2)c(C)cc1Cl` [Example 96, 4-chloro-N-(3-(5-cyanothiazol-2-yl)phenyl)-2,5-dimethylbenzenesulfonamide] yielded a concentration at half-maximal activity (AC50) of 50 µM.

For `Cc1ccc(C)c(S(=O)(=O)Nc2cccc(C(=O)NCC3CC3)c2)c1` [Example 4, N-(cyclopropylmethyl)-3-((2,5-dimethylphenyl)sulfonamido)benzamide], half-maximal activity (AC50) was put at 11 µM.

For `Cc1ccc(C)c(S(=O)(=O)Nc2cccc(C(=O)N[C@@H](C)C3CC3)c2)c1` [Example 8, (S)-N-(1-cyclopropylethyl)-3-((2,5-dimethylphenyl)sulfonamido)benzamide], the half-maximal activity concentration (AC50) came to 3 µM.

Molecule `Cc1cc(S(=O)(=O)Nc2cccc(C(=O)N3CCC[C@H]3C)c2)c(C)cc1Cl` [Example 10, (R)-4-chloro-2,5-dimethyl-N-(3-(2-methylpyrrolidine-1-carbonyl)phenyl)benzenesulfonamide] gave an AC50 of 0.4 µM.

In turn, `Cc1cnc(-c2cc(NS(=O)(=O)c3cc(C)c(Cl)cc3C)ccc2C)s1` [Example 103, 4-chloro-2,5-dimethyl-N-(4-methyl-3-(5-methylthiazol-2-yl)phenyl)benzenesulfonamide] displayed an AC50 of 9 µM.

Consider `Cc1cc(S(=O)(=O)Nc2cccc(C(=O)NCc3ccccc3)c2)c(C)cc1Cl` [Example 11, N-benzyl-3-((4-chloro-2,5-dimethylphenyl)sulfonamido)benzamide], for which the AC50 is 4 µM.

The molecule “(R)-2,5-dimethyl-N-(3-(3-methylmorpholine-4-carbonyl)phenyl)benzenesulfonamide [Example 1]” had an AC50 of 2 µM.

`Cc1ccc(C)c(S(=O)(=O)Nc2cccc(C(=O)N3CCCC[C@@H]3C)c2)c1` [Example 6, (S)-2,5-dimethyl-N-(3-(2-methylpiperidine-1-carbonyl)phenyl)benzenesulfonamide] came in with an AC50 of 5 µM.
